Test results reported in ChEMBL document CHEMBL1152751, “2,5-Disubstituted tetrahydrofurans as selective serotonin re-uptake inhibitors” (Bioorg Med Chem, 2009).
Calls of active or inactive are those of the source. The calls are words filed in the database; no cut-off is given here.

How the values were obtained:
[1] = target: T1, Sodium-dependent serotonin transporter (Homo sapiens, UniProt P31645); test: biochemical; assay type: cell-based, HEK293
Description: Displacement of [125I]RTI55 from human SERT expressed in HEK cells

[2] = target: T2, Sodium-dependent dopamine transporter (Homo sapiens, UniProt Q01959); test: biochemical; assay type: cell-based, HEK293
Description: Displacement of [125I]RTI55 from human DAT expressed in HEK cells

[3] = target: T1, Sodium-dependent serotonin transporter; test: Inhibition of [3H]serotonin reuptake at human SERT expressed in HEK cells; assay type: cell-based, HEK293
[4] = target: T2, Sodium-dependent dopamine transporter; test: Inhibition of [3H]dopamine reuptake at human DAT expressed in HEK cells; assay type: cell-based, HEK293
Mus musculus [5] = test: Antidepressant activity in BALB/c mouse assessed as change in duration of immobility at 20 mg/kg, ip pretreated 30 mins before test by forced swimming test; assay type: functional, organism-based; parameters: dose 20 mg/kg
Mus musculus [6] = test: Antidepressant activity in BALB/c mouse assessed as decrease in duration of immobility at 10 mg/kg, ip pretreated 30 mins before test by forced swimming test; assay type: functional, organism-based; parameters: dose 10 mg/kg
[7] = target: T3, Sodium-dependent noradrenaline transporter (Homo sapiens, UniProt P23975); test: biochemical; assay type: cell-based, HEK293
Description: Displacement of [125I]RTI55 from human NET expressed in HEK cells

[8] = target: T3, Sodium-dependent noradrenaline transporter; test: Inhibition of [3H]norepinephrine reuptake at human NET expressed in HEK cells; assay type: cell-based, HEK293
[9] = Metabolic stability assessed as half life in mouse liver microsomes; assay type: ADME, Microsome
Mus musculus [10] = test: Antidepressant activity in ICR mouse assessed as change in duration of immobility at 10 mg/kg, ip pretreated 30 mins before test by forced swimming test; assay type: functional, organism-based; parameters: dose 10 mg/kg
[11] = Metabolic stability assessed as half life in rat liver microsomes; assay type: ADME, Microsome

T1 sequence (P31645 whole entry): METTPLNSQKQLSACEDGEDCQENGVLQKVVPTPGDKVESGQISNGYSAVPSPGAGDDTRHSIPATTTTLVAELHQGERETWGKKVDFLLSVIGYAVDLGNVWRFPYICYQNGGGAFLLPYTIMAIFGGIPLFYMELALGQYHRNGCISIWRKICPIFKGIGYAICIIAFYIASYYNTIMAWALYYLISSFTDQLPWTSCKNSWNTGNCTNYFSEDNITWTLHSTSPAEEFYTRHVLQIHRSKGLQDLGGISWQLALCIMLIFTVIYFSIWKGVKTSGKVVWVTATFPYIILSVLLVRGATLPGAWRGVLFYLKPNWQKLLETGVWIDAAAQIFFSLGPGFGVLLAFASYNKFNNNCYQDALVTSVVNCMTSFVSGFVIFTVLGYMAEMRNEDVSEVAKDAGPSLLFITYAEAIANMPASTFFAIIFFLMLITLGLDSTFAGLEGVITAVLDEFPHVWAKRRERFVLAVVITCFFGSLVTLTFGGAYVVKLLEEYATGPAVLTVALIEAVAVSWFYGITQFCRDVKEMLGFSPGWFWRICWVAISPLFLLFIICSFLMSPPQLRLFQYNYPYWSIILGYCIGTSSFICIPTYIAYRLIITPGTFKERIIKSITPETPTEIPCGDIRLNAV
T2 sequence (Q01959 whole entry): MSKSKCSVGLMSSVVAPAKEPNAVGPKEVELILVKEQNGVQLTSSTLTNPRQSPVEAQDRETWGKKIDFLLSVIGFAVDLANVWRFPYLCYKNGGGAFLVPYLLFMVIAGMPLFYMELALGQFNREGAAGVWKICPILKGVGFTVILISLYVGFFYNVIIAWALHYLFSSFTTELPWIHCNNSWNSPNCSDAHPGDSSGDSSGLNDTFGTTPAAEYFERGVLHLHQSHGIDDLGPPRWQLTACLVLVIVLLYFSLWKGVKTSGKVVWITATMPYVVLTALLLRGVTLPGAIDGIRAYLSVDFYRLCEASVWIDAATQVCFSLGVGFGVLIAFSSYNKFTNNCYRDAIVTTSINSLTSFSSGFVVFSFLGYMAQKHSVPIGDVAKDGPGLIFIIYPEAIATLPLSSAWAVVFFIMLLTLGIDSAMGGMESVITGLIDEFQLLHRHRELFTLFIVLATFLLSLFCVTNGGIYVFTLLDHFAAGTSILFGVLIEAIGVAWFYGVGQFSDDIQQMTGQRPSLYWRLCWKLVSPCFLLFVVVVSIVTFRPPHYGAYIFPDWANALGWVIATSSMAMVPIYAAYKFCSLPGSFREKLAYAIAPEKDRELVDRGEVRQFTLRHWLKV
T3 sequence (P23975 whole entry): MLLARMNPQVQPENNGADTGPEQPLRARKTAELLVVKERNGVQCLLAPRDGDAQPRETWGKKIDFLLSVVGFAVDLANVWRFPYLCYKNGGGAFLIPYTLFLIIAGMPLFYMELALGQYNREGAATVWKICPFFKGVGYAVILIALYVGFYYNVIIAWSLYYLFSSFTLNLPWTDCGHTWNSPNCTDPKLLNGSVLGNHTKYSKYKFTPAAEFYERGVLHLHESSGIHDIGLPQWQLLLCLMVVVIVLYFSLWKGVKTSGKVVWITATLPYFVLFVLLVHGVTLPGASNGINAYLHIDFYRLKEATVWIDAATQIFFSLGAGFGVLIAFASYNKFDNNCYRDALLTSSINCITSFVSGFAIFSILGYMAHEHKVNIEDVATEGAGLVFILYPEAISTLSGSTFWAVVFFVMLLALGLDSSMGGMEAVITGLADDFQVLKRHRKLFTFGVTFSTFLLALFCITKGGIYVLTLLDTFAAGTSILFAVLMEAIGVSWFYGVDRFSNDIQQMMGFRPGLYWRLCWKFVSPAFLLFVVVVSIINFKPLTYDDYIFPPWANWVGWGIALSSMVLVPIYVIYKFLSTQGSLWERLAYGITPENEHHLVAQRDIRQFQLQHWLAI

`COc1ccc(F)cc1CCC[C@@H]1CC[C@H](CN)O1` (relative stereo) showed a Ki [1] of 0.0028 µM, a Ki [2] of 4.58 µM and an IC50 [3] of 0.0026 µM. The IC50 [4] was 6.29 µM.
Work on `COc1ccc(F)cc1C[C@@H]1CC[C@H](CN)O1` (relative stereo) yielded an IC50 [4] of 18.7 µM.
For `CNCCC(Oc1ccc(C(F)(F)F)cc1)c1ccccc1` (configuration not stated), the Activity (Mus musculus [5]) was “inactive” and the Activity (Mus musculus [6]) was “Active”.
With `NCC1CCC(CCc2cccc3ccccc23)O1` (configuration not stated) the Ki [1] was 0.018 µM, the Ki [2] was over 10 µM and the IC50 [4] was over 10 µM. It also gave a Ki [7] of over 10 µM.
`COc1ccc(F)cc1C[C@@H]1CC[C@H](CCN)O1` (relative stereo) gave an IC50 [8] of 1.86 µM.
In the case of `COc1ccc(F)cc1CCC1CCC(CCN)O1` (configuration not stated), the half-life [9] is reported as 56 min and the Activity (Mus musculus [10]) is reported as “inactive”.
In the case of `COc1ccc(F)cc1CCCC1CCC(CCN)O1` (mixture of isomers), the Activity (Mus musculus [6]) is reported as “inactive”.
Work on `CC(C)(C)c1ccc(C2CCC(CN)O2)cc1` (configuration not stated) yielded a Ki [1] of over 10 µM and a Ki [2] of over 10 µM.
For `COc1ccc(F)cc1CCC[C@H]1CC[C@H](CN)O1` (relative stereo), the Ki [1] was 0.0008 µM, the IC50 [3] was 0.0021 µM and the IC50 [4] was 7.62 µM.
Work on `CNCCC1CCC(CCc2cc(F)ccc2OC)O1` (configuration not stated) yielded a half-life [11] of 129 min and a half-life [9] of 58.5 min.
In the case of `COc1ccc(F)cc1[C@H]1CC[C@H](CCN)O1`, the Ki [2] is reported as 32.9 µM and the IC50 [4] is reported as over 10 µM.
With `COc1ccc(F)cc1[C@H]1CC[C@H](CN)O1` (relative stereo) the Ki [2] was over 10 µM and the IC50 [4] was over 10 µM.
For `COc1ccc(F)cc1[C@@H]1CC[C@H](CCN)O1` (relative stereo), the Ki [2] was over 10 µM and the IC50 [4] was over 10 µM.
`NCC1CCC(c2ccc(Br)cc2)O1` (configuration not stated) gave a Ki [7] of over 10 µM.
Compound `NCCC1CCC(c2ccco2)O1` (configuration not stated) has an IC50 [8] of over 10 µM, a Ki [1] of over 10 µM and a Ki [2] of over 10 µM. It also gave an IC50 [3] of over 10 µM, an IC50 [4] of over 10 µM and a Ki [7] of over 10 µM.
Compound `NCC1CCC(CCc2c(F)c(F)c(F)c(F)c2F)O1` (configuration not stated) has a Ki [2] of over 10 µM.
Work on `NCC1CCC(CCc2cccnc2)O1` (configuration not stated) yielded an IC50 [8] of over 10 µM, a Ki [2] of over 10 µM and an IC50 [3] of 2.72 µM. The IC50 [4] was over 10 µM.
`COc1ccc(CCC2CCC(CCN)O2)c2ccccc12` (configuration not stated) gave a Ki [2] of over 10 µM and a Ki [7] of over 10 µM.
For `NCC1CCC(c2ccc3ccccc3c2)O1` (configuration not stated), the IC50 [3] was 0.004 µM and the Ki [7] was over 10 µM.
Compound `COc1ccc(F)cc1C[C@H]1CC[C@H](CCN)O1` (relative stereo) has an IC50 [8] of 1.77 µM.
For `COc1ccc(F)cc1C1CCC(CN)O1` (configuration not stated), the IC50 [4] was over 10 µM.
`NCCC1CCC(Cc2ccccc2)O1` (configuration not stated) gave a Ki [2] of over 10 µM and a Ki [7] of over 10 µM.
With `COc1ccc(F)cc1CCCC[C@H]1CC[C@H](CN)O1` (relative stereo) the Ki [1] was 0.004 µM, the Ki [2] was 3.87 µM and the IC50 [3] was 0.084 µM. For the same compound, the IC50 [4] was 16.5 µM.
`COc1ccc(C2CCC(CN)O2)cc1` (configuration not stated) gave a Ki [2] of over 10 µM.
`COc1ccc(F)cc1CC[C@H]1CC[C@H](CN)O1` showed a Ki [2] of 14.5 µM.
For `COc1ccc(F)cc1C[C@H]1CC[C@H](CN)O1` (relative stereo), the IC50 [4] was 28.9 µM.
`COc1ccc2ccccc2c1CCC1CCC(CCN)O1` (configuration not stated) showed a Ki [2] of over 10 µM and a Ki [7] of over 10 µM.
